Measurements published in patent US12685315B2, “Herbicidal combination” (UPL do Brasil Industria e Comercio de Insumos Agropecuarios …, priority 2019, dated 2026).

Legend:
Format in all cases: in vivo
Digitaria insularis = test: Field trial of triple mixes of amicarbazone, post-emergence weed control; details: dose g ai/ha: Amicarbazone 75, S-metolachlor 300, Atrazine 250, mix 75 + 300 + 250
Experimental: (§1) Field trials were done to evaluate the efficacy and synergism of the triple mixes of amicarbazone with other herbicides for the control of weeds in pre and post-emergence application.
(§2) The composition of the present invention was applied. This test was performed for species of weeds: Grasses namely BRADC=Brachiaria decumbens, CCHEC=Cenchrus echinatus, ELEIN=Eleusine indica, TRCIN=Digitaria insularis and Broadleaves namely IAQGR=Ipomoea grandifolia, EPHHL=Euphorbia heterophylla, COMBE=Commelina benghalensis. Data were collected at various period after application of the composition to the soil and calculated.

[1] = test system: Cenchrus echinatus (CCHEC); test: Field trial of triple mixes of amicarbazone, pre and post-emergence weed control
Experimental: as §1, §2

[2] = test system: Brachiaria decumbens (BRADC); test: as above
Experimental: as §1, §2

Eleusine indica = test: as above
Experimental: as §1, §2

[3] = test system: Ipomoea grandifolia (IAQGR); test: Field trial of triple mixes of amicarbazone, pre-emergence weed control
Experimental: as §1, §2

Commelina benghalensis = test: as above; details: dose g ai/ha: Amicarbazone 75, Mesotrione 38, Ametryn 250, mix AMC + AME + MST 75 + 38 + 250
Experimental: as §1, §2

Euphorbia heterophylla = test: as above; details: dose g ai/ha: Amicarbazone 250, Sulfentrazone 150, Diuron 250, mix 250 + 150 + 250
Experimental: as §1, §2

## CC(C)c1nn(C(=O)NC(C)(C)C)c(=O)n1N [Amicarbazone]
Digitaria insularis; Table 9, 21 DAA
  % Control: 7.5%
Digitaria insularis; Table 9, 28 DAA
  % Control: 1.3%
Digitaria insularis; Table 9, 35 DAA
  % Control: 0.5%
[1]; Table 2, Post-Emergence, 7 DAA, dose g ai/ha: Amicarbazone 75, Isoxaflutole 15, Atrazine 250, mix 75 + 15 + 250
  % Control: 33.8%
[1]; Table 2, Post-Emergence, 28 DAA, dose g ai/ha: Amicarbazone 75, Isoxaflutole 15, Atrazine 250, mix 75 + 15 + 250
  % Control: 40.0%
[1]; Table 2, Post-Emergence, 35 DAA, dose g ai/ha: Amicarbazone 75, Isoxaflutole 15, Atrazine 250, mix 75 + 15 + 250
  % Control: 36.3%
[1]; Table 6, Post-Emergence, 21 DAA, dose g ai/ha: Amicarbazone 250, Sulfentrazone 150, Diuron 250, mix 250 + 150 + 250
  % Control: 0.0%
[1]; Table 6, Post-Emergence, 28 DAA, dose g ai/ha: Amicarbazone 250, Sulfentrazone 150, Diuron 250, mix 250 + 150 + 250
  % Control: 0.0%
[1]; Table 6, Post-Emergence, 35 DAA, dose g ai/ha: Amicarbazone 250, Sulfentrazone 150, Diuron 250, mix 250 + 150 + 250
  % Control: 0.0%
[1]; Table 6, Pre-Emergence, 21 DAA, dose g ai/ha: Amicarbazone 250, Sulfentrazone 150, Diuron 250, mix 250 + 150 + 250
  % Control: 7.5%
[1]; Table 6, Pre-Emergence, 28 DAA, dose g ai/ha: Amicarbazone 250, Sulfentrazone 150, Diuron 250, mix 250 + 150 + 250
  % Control: 5.0%
[1]; Table 6, Pre-Emergence, 35 DAA, dose g ai/ha: Amicarbazone 250, Sulfentrazone 150, Diuron 250, mix 250 + 150 + 250
  % Control: 3.3%
[2]; Table 1, Post-Emergence, 7 DAA, dose g ai/ha: Amicarbazone 75, Isoxaflutole 15, Atrazine 250, mix 75 + 15 + 250
  % Control: 43.8%
[2]; Table 1, Post-Emergence, 21 DAA, dose g ai/ha: Amicarbazone 75, Isoxaflutole 15, Atrazine 250, mix 75 + 15 + 250
  % Control: 38.8%
[2]; Table 1, Post-Emergence, 28 DAA, dose g ai/ha: Amicarbazone 75, Isoxaflutole 15, Atrazine 250, mix 75 + 15 + 250
  % Control: 40.0%
[2]; Table 1, Pre-Emergence, 7 DAA, dose g ai/ha: Amicarbazone 75, Isoxaflutole 15, Atrazine 250, mix 75 + 15 + 250
  % Control: 0.0%
[2]; Table 1, Pre-Emergence, 21 DAA, dose g ai/ha: Amicarbazone 75, Isoxaflutole 15, Atrazine 250, mix 75 + 15 + 250
  % Control: 0.0%
[2]; Table 1, Pre-Emergence, 28 DAA, dose g ai/ha: Amicarbazone 75, Isoxaflutole 15, Atrazine 250, mix 75 + 15 + 250
  % Control: 0.0%
[2]; Table 5, Post-Emergence, 21 DAA, dose g ai/ha: Amicarbazone 250, Clomazone 250, Diuron 250, mix 250 + 250 + 250
  % Control: 25.0%
[2]; Table 5, Post-Emergence, 28 DAA, dose g ai/ha: Amicarbazone 250, Clomazone 250, Diuron 250, mix 250 + 250 + 250
  % Control: 16.3%
[2]; Table 5, Post-Emergence, 35 DAA, dose g ai/ha: Amicarbazone 250, Clomazone 250, Diuron 250, mix 250 + 250 + 250
  % Control: 13.8%
[2]; Table 5, Pre-Emergence, 21 DAA, dose g ai/ha: Amicarbazone 250, Clomazone 250, Diuron 250, mix 250 + 250 + 250
  % Control: 63.8%
[2]; Table 5, Pre-Emergence, 28 DAA, dose g ai/ha: Amicarbazone 250, Clomazone 250, Diuron 250, mix 250 + 250 + 250
  % Control: 50.0%
[2]; Table 5, Pre-Emergence, 35 DAA, dose g ai/ha: Amicarbazone 250, Clomazone 250, Diuron 250, mix 250 + 250 + 250
  % Control: 46.3%
Eleusine indica; Table 8, Post-Emergence, 14 DAA, dose g ai/ha: Amicarbazone 250, Sulfentrazone 150, Diuron 250, mix 250 + 150 + 250
  % Control: 13.8%
Eleusine indica; Table 8, Post-Emergence, 21 DAA, dose g ai/ha: Amicarbazone 250, Sulfentrazone 150, Diuron 250, mix 250 + 150 + 250
  % Control: 16.3%
Eleusine indica; Table 8, Post-Emergence, 28 DAA, dose g ai/ha: Amicarbazone 250, Sulfentrazone 150, Diuron 250, mix 250 + 150 + 250
  % Control: 13.8%
Eleusine indica; Table 8, Pre-Emergence, 14 DAA, dose g ai/ha: Amicarbazone 250, Sulfentrazone 150, Diuron 250, mix 250 + 150 + 250
  % Control: 68.8%
Eleusine indica; Table 8, Pre-Emergence, 21 DAA, dose g ai/ha: Amicarbazone 250, Sulfentrazone 150, Diuron 250, mix 250 + 150 + 250
  % Control: 92.0%
Eleusine indica; Table 8, Pre-Emergence, 28 DAA, dose g ai/ha: Amicarbazone 250, Sulfentrazone 150, Diuron 250, mix 250 + 150 + 250
  % Control: 87.0%
Eleusine indica; Table 10, Post-Emergence, 14 DAA, dose g ai/ha: Amicarbazone 75, Mesotrione 38, Ametryn 250, mix AMC + AME + MST 75 + 38 + 250
  % Control: 0.0%
Eleusine indica; Table 10, Post-Emergence, 21 DAA, dose g ai/ha: Amicarbazone 75, Mesotrione 38, Ametryn 250, mix AMC + AME + MST 75 + 38 + 250
  % Control: 0.0%
Eleusine indica; Table 10, Post-Emergence, 28 DAA, dose g ai/ha: Amicarbazone 75, Mesotrione 38, Ametryn 250, mix AMC + AME + MST 75 + 38 + 250
  % Control: 0.0%
Eleusine indica; Table 10, Pre-Emergence, 14 DAA, dose g ai/ha: Amicarbazone 75, Mesotrione 38, Ametryn 250, mix AMC + AME + MST 75 + 38 + 250
  % Control: 0.0%
Eleusine indica; Table 10, Pre-Emergence, 21 DAA, dose g ai/ha: Amicarbazone 75, Mesotrione 38, Ametryn 250, mix AMC + AME + MST 75 + 38 + 250
  % Control: 0.0%
Eleusine indica; Table 10, Pre-Emergence, 28 DAA, dose g ai/ha: Amicarbazone 75, Mesotrione 38, Ametryn 250, mix AMC + AME + MST 75 + 38 + 250
  % Control: 0.0%
[3]; Table 3, 14 DAA, dose g ai/ha: Amicarbazone 75, Isoxaflutole 15, Atrazine 250, mix 75 + 15 + 250
  % Control: 11.3%
[3]; Table 3, 21 DAA, dose g ai/ha: Amicarbazone 75, Isoxaflutole 15, Atrazine 250, mix 75 + 15 + 250
  % Control: 0.0%
[3]; Table 3, 28 DAA, dose g ai/ha: Amicarbazone 75, Isoxaflutole 15, Atrazine 250, mix 75 + 15 + 250
  % Control: 0.0%
[3]; Table 4, 7 DAA, dose g ai/ha: Amicarbazone 250, Clomazone 250, Diuron 250, mix 250 + 250 + 250
  % Control: 18.8%
[3]; Table 4, 14 DAA, dose g ai/ha: Amicarbazone 250, Clomazone 250, Diuron 250, mix 250 + 250 + 250
  % Control: 73.8%
[3]; Table 4, 28 DAA, dose g ai/ha: Amicarbazone 250, Clomazone 250, Diuron 250, mix 250 + 250 + 250
  % Control: 86.5%
Commelina benghalensis; Table 11, 21 DAA
  % Control: 8.8%
Commelina benghalensis; Table 11, 28 DAA
  % Control: 7.3%
Commelina benghalensis; Table 11, 35 DAA
  % Control: 6.8%
Euphorbia heterophylla; Table 7, 7 DAA
  % Control: 3.8%
Euphorbia heterophylla; Table 7, 14 DAA
  % Control: 28.8%
Euphorbia heterophylla; Table 7, 21 DAA
  % Control: 56.3%
